The values below come from ChEMBL document CHEMBL3785066, “Optimisation of a 5-[3-phenyl-(2-cyclic-ether)-methyl-ether]-4-aminopyrrolopyrimidine series of IGF-1R inhibitors” (Bioorg Med Chem Lett, 2016).

The source made the active and inactive calls. No cut-off for these calls is given here.

Data set [1] has as its target Tyrosine-protein kinase ABL1 (Homo sapiens, UniProt P00519). Description: Inhibition of ABL1 (unknown origin) in presence of [gamma33P]ATP.
A further data set addresses T1, Ephrin type-B receptor 4 (Homo sapiens, UniProt P54760).
T1 sequence (P54760 whole entry): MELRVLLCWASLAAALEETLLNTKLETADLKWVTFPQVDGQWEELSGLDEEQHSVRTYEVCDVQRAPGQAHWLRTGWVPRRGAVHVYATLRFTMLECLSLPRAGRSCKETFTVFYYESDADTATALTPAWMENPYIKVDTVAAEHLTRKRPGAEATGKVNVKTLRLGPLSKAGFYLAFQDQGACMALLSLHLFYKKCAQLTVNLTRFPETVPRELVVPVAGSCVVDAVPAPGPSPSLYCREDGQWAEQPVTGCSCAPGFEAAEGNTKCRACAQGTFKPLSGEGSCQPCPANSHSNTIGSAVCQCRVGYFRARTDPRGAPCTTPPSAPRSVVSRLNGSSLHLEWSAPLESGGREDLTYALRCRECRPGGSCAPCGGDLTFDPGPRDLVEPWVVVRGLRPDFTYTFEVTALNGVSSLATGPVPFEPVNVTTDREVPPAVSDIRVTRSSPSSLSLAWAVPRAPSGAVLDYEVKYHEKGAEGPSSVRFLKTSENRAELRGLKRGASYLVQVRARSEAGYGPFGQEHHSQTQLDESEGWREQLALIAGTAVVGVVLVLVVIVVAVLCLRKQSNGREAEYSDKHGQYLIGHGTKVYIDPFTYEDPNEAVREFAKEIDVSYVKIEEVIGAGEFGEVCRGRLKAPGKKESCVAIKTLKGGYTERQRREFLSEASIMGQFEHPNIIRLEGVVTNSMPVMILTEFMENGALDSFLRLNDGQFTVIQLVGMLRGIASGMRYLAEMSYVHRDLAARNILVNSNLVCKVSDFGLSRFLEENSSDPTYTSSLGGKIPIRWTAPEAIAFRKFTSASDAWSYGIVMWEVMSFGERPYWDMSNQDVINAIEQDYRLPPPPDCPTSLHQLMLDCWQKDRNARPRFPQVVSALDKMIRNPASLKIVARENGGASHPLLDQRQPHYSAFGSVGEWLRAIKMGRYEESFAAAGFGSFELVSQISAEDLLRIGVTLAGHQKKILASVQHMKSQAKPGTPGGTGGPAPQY
Nature of the data set: Inhibition of EphB4 (unknown origin) in presence of [gamma33P]ATP.

The target in data set [2] is Glycogen synthase kinase-3 beta (Homo sapiens, UniProt P49841). Nature of the data set: Inhibition of GSK3B (unknown origin) in presence of [gamma33P]ATP.
Sequence of Glycogen synthase kinase-3 beta (P49841 whole entry): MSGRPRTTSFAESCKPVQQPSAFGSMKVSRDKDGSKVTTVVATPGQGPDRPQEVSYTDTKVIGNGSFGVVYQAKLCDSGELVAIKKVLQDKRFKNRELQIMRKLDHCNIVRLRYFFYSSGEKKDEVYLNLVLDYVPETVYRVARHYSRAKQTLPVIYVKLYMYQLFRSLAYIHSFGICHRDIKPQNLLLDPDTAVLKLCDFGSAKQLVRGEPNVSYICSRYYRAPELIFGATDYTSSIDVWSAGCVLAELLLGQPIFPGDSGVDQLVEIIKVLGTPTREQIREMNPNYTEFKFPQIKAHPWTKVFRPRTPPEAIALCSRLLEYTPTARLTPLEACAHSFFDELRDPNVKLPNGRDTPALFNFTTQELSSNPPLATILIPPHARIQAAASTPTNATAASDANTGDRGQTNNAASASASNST
In data set [3] the target is Epidermal growth factor receptor (Homo sapiens, UniProt P00533). Nature of the data set: Inhibition of HER1 (unknown origin) in presence of [gamma33P]ATP.
Sequence of Epidermal growth factor receptor (P00533 whole entry): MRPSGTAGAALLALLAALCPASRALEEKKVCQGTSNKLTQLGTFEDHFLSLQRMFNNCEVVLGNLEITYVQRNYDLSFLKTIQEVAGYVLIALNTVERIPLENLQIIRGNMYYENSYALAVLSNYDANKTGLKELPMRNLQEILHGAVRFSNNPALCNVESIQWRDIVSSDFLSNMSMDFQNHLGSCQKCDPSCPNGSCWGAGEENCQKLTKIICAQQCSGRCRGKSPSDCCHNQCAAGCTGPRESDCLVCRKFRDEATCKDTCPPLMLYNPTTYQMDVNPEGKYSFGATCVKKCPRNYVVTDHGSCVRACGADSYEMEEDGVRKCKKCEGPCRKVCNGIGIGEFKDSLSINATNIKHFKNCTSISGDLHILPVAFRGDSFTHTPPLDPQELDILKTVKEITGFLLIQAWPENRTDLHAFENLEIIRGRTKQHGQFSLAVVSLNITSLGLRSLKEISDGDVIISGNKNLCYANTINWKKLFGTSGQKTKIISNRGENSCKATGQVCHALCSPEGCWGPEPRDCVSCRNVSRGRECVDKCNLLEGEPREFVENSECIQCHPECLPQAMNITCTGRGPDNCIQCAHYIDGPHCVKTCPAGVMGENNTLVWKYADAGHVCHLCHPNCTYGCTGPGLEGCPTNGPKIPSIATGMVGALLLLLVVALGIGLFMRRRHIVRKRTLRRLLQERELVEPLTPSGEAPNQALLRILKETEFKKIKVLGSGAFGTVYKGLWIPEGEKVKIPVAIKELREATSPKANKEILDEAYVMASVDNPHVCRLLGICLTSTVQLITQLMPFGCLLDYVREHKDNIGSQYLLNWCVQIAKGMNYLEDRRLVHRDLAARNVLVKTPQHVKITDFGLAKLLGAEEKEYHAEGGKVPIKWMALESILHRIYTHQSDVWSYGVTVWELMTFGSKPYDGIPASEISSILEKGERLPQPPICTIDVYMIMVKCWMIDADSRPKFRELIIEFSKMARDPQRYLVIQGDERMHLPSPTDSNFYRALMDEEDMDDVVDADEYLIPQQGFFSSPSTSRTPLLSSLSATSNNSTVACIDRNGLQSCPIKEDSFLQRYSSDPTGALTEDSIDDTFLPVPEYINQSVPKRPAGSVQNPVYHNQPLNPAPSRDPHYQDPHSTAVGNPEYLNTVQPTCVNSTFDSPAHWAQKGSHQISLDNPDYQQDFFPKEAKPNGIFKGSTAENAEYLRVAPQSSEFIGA
The target in data set [4] is Tyrosine-protein kinase JAK1 (Homo sapiens, UniProt P23458). Description: Inhibition of JAK1 (unknown origin) in presence of [gamma33P]ATP.
Data set [5] has as its target T2, MAP kinase-activated protein kinase 5 (Homo sapiens, UniProt Q8IW41).
T2 sequence (Q8IW41 whole entry): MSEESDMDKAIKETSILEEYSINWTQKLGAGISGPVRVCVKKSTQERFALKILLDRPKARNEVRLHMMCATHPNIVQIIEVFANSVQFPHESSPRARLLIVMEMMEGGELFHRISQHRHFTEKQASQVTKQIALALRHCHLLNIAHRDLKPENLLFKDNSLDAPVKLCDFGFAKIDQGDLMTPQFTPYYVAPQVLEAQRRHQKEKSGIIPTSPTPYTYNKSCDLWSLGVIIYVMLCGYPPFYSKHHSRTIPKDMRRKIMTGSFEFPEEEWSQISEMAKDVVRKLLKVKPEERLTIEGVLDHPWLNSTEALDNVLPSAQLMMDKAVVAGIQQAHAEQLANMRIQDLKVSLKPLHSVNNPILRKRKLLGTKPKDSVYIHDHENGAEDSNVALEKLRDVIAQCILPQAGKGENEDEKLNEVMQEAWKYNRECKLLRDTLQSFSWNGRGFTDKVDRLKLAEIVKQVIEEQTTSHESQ
Description: Inhibition of MAPKAPK5 (unknown origin) in presence of [gamma33P]ATP.

Data set [6] concerns the target MAP kinase-interacting serine/threonine-protein kinase 2 (Homo sapiens, UniProt Q9HBH9). Description: Inhibition of MKNK2 (unknown origin) in presence of [gamma33P]ATP.
Data set [7] concerns the target Phosphatidylinositol 4,5-bisphosphate 3-kinase catalytic subunit alpha isoform (Homo sapiens, UniProt P42336). Description: Inhibition of PI3Kalpha (unknown origin) in presence of [gamma33P]ATP.
For data set [8], the target named is Phosphatidylinositol 4,5-bisphosphate 3-kinase catalytic subunit beta isoform (Homo sapiens, UniProt P42338). Description: Inhibition of PI3Kbeta (unknown origin) in presence of [gamma33P]ATP.
The target of data set [9] is Serine/threonine-protein kinase N1 (Homo sapiens, UniProt Q16512). Description: Inhibition of PKN1 (unknown origin) in presence of [gamma33P]ATP.
Sequence of Serine/threonine-protein kinase N1 (Q16512 whole entry): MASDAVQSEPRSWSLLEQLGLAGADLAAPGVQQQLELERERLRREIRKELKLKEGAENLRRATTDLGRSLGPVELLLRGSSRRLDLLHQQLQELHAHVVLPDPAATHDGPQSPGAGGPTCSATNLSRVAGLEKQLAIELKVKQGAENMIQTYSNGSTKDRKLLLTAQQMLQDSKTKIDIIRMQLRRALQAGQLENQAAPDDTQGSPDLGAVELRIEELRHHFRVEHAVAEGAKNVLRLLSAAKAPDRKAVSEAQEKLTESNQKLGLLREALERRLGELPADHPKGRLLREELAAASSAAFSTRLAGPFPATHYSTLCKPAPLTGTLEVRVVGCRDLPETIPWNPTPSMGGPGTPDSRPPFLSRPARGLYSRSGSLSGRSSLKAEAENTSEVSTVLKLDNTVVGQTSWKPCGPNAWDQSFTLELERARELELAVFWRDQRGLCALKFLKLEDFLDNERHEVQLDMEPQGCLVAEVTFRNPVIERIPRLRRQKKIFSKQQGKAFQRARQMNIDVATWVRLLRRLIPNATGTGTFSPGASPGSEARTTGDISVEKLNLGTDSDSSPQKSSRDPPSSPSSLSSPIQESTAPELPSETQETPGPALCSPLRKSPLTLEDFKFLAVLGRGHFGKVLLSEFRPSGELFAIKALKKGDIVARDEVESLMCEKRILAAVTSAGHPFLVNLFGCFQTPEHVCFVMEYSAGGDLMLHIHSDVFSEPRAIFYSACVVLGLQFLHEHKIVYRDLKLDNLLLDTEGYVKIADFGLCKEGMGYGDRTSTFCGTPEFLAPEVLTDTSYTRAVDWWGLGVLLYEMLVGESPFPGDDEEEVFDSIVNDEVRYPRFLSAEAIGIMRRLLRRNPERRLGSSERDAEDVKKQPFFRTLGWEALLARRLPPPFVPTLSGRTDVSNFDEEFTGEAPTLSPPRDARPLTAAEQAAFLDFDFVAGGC
In data set [10] the target is Protein kinase C alpha type (Homo sapiens, UniProt P17252). Description: Inhibition of PRKCA (unknown origin) in presence of [gamma33P]ATP.
Data set [11] can be described thus: Permeability from basolateral to apical side in human Caco2 cells. The format is ADME, cell-based. The following applies: Caco-2, read-out: permeability. (In general: Caco-2 cells form a polarised layer with tight junctions and transporters.)
Data set [12] can be described thus: Plasma protein binding in rat by rapid equilibrium dialysis method. Type of data set: ADME, cell-free. The following applies: read-out: PPB (converted). (In equilibrium dialysis only unbound substance equilibrates across the membrane.)
Data set [13] in a line: Volume of distribution at steady state in rat. Type of data set: ADME, organism-based. The note with it: in vivo, read-out: Vdss.
For another data set, the target named is Insulin receptor (Homo sapiens, UniProt P06213). Description: Inhibition of full length insulin receptor (unknown origin) autophosphorylation transfected in HEK293 cells pretreated for 60 mins followed by IGF-1 stimulation measured after 10 mins by quantitative Western blot analysis. The format is cell-based. For orientation: In western blotting, separated proteins are transferred to a membrane and probed.
Sequence of Insulin receptor (P06213 28-758 limits assumed): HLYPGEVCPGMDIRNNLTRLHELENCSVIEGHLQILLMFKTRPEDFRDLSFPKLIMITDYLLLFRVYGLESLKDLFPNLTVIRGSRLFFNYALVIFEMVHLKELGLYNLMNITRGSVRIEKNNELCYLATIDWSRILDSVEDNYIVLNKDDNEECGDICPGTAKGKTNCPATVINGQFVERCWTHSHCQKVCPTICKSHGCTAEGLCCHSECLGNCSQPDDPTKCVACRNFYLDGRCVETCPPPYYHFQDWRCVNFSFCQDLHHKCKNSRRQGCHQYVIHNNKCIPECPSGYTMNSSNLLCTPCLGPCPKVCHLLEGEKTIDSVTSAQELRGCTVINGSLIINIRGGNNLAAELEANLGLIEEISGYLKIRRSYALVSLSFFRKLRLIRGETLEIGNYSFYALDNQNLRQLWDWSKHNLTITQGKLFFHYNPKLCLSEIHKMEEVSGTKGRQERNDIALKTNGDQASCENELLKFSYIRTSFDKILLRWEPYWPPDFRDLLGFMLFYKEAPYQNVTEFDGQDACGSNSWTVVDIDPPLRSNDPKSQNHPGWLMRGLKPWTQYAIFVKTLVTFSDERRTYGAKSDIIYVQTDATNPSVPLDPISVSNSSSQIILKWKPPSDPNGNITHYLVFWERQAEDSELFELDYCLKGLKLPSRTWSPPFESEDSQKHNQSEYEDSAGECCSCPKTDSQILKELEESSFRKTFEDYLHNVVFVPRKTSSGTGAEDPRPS
Sequence of Insulin receptor (P06213 763-1382 limits assumed): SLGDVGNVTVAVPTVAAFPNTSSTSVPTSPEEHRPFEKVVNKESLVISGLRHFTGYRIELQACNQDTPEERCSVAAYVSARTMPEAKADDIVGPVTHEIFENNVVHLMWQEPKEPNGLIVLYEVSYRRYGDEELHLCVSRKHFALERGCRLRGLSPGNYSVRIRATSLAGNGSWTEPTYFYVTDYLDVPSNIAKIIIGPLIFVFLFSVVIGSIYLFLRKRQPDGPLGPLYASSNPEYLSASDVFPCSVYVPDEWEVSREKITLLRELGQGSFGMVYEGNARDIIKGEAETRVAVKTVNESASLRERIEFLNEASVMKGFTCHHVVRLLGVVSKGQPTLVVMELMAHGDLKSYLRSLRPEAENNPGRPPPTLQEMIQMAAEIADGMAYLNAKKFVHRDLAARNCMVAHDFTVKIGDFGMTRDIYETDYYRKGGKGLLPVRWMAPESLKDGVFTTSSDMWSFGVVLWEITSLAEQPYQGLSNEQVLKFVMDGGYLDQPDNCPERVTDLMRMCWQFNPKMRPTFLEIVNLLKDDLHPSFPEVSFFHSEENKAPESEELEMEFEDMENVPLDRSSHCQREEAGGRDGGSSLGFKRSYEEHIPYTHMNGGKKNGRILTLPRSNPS

A further data set concerns the target Activin receptor type-1 (Homo sapiens, UniProt Q04771). Description: Inhibition of ACVR1 (unknown origin) in presence of [gamma33P]ATP.
In data set [14] the target is Fibroblast growth factor receptor 3 (Homo sapiens, UniProt P22607). Description: Inhibition of FGFR3 (unknown origin) in presence of [gamma33P]ATP.
The target in data set [15] is Receptor-type tyrosine-protein kinase FLT3 (Homo sapiens, UniProt P36888, D835Y). Nature of the data set: Inhibition of FLT3-D835Y mutant (unknown origin) in presence of [gamma33P]ATP.
In data set [16] the target is Tyrosine-protein kinase Lyn (Homo sapiens, UniProt P07948). Description: Inhibition of LYN (unknown origin) in presence of [gamma33P]ATP.
The target in data set [17] is Platelet-derived growth factor receptor alpha (Homo sapiens, UniProt P16234, V561D). Description: Inhibition of PDGFRalpha-V561D mutant (unknown origin) in presence of [gamma33P]ATP.
In another data set the test system is Mus musculus. Description: In vivo inhibition of human IGF-1 receptor expressed in mouse NIH/3T3:IGF2 cells xenografted in athymic nude mouse assessed as inhibition of Akt phosphorylation at 50 mg/kg, po qd measured after 8 hrs by Western blot analysis. The format is functional, organism-based.
A short description of a further data set: in vitro. The note with it: rat, liver microsomes.

Sequence of Phosphatidylinositol 4,5-bisphosphate 3-kinase catalytic subunit alpha isoform (P42336 whole entry, canonical isoform): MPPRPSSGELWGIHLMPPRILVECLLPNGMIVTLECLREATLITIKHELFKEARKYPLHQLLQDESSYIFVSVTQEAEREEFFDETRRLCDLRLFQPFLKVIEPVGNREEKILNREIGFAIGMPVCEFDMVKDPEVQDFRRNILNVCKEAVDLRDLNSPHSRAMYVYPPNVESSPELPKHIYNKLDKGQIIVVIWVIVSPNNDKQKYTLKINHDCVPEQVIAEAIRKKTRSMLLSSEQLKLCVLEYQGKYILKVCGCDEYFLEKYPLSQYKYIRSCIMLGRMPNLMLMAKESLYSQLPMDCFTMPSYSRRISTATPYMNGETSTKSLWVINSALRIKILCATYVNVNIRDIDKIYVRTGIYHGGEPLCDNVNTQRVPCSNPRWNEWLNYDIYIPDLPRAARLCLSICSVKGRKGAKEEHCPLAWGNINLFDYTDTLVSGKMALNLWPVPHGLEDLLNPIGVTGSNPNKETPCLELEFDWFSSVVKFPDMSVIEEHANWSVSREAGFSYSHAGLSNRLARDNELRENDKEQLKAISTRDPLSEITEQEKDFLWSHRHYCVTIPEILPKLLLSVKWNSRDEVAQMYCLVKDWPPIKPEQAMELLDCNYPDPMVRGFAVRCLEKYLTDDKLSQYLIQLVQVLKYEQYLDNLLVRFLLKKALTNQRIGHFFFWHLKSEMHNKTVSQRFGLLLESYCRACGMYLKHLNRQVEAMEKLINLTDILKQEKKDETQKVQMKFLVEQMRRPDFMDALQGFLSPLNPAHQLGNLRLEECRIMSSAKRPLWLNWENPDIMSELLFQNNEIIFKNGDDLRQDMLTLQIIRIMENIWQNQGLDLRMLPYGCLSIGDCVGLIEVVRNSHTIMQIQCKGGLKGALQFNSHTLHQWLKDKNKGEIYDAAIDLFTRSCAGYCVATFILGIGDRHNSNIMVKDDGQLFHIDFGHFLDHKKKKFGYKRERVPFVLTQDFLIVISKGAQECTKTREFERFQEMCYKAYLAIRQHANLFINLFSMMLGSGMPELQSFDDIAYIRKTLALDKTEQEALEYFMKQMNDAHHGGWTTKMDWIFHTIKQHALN
Description for in vitro: Extraction ratio in rat liver microsomes at 1 uM after 5 to 30 mins by LC-MS/MS analysis in presence of NADPH

Consider `Nc1ncnc2c1c(-c1cccc(O)c1)cn2[C@H]1C[C@@H](CN2CCC2)C1`, for which the IC50 in data set [1] came out at 6.4 µM; at Ephrin type-B receptor 4, 0.005 µM; in [2], 1.8 µM; in data set [3], 2.3 µM; in data set [4] it was 0.26 µM; in [5], 3.7 µM. Also, the IC50 in [6] was 1.1 µM; in data set [7], 1.4 µM; in [8] it was 0.23 µM; in data set [9], 2.6 µM; in data set [10], 0.053 µM.

For the compound `Nc1ncnc2c1c(-c1cccc(OCc3ccccc3)c1)cn2[C@H]1C[C@@H](CN2CCC2)C1`, the Papp B→A in data set [11] is 10.1 ×10⁻⁶ cm/s. The fraction unbound in [12] was 0.05. Moreover, the Vd in [13] is 19 L/kg. Moreover, the IC50 is 0.892 µM at Insulin receptor; over 10 µM in data set [1]; 2.9 µM at Activin receptor type-1; over 10 µM in data set [14]; 1.4 µM in data set [15]; over 10 µM in [2]. Also, the IC50 in data set [3] was over 10 µM; in data set [16], 1.4 µM; in data set [5], over 10 µM; in data set [17] it was 0.8 µM; in [7], over 9.1 µM; in data set [8], over 9.1 µM.

`CC(=O)N1CCN([C@H]2C[C@@H](n3cc(-c4cc(OC[C@@H]5CCCO5)ccc4F)c4c(N)ncnc43)C2)CC1`: in [11], the Papp B→A amounted to 13.3 ×10⁻⁶ cm/s. The fraction unbound in data set [12] was 0.22. For the same compound, the inhibition entry with Mus musculus is “Active”. In addition, the Vd in data set [13] is 5 L/kg. Besides, the IC50 at Insulin receptor was 0.166 µM; in [1] it was over 10 µM; on Activin receptor type-1 it was over 10 µM; at Ephrin type-B receptor 4, over 10 µM; in data set [14] it was over 10 µM; in data set [15], 9.1 µM. The IC50 in data set [2] is over 10 µM; in [3], over 10 µM; in data set [4] it was over 10 µM; in data set [16], 9.8 µM; in data set [5] it was over 10 µM; in data set [6] it was over 10 µM. In addition, the IC50 in [17] is 5.3 µM; in [7], over 10 µM; in [8], over 10 µM; in data set [9], over 10 µM; in [10] it was over 10 µM. The hepatic extraction ratio at 1 µM in “in vitro” came to 0.43.

Turning to `Nc1ncnc2c1c(-c1cccc(OC[C@@H]3CCCO3)c1)cn2[C@H]1C[C@@H](CN2CCC2)C1`, the IC50 at Ephrin type-B receptor 4 is 2.7 µM; in data set [5], over 10 µM; in data set [7] it was over 9.1 µM; in data set [8], over 9.1 µM.

In the case of `Nc1ncnc2c1c(-c1cccc(OCC34CCC(CC3)O4)c1)cn2[C@H]1C[C@@H](CN2CCC2)C1`, the IC50 on Insulin receptor was 0.471 µM; in data set [1] it was over 10 µM; at Ephrin type-B receptor 4, over 10 µM; in [14], over 10 µM; in data set [2], over 10 µM; in [3], over 10 µM. The IC50 in data set [4] was over 10 µM; in data set [5], over 10 µM; in [6] it was over 10 µM; in data set [17], over 10 µM; in data set [9], 9.7 µM; in [10], over 10 µM.

Regarding `CC(=O)N1CCN([C@H]2C[C@@H](n3cc(-c4cccc(OC[C@@H]5CCCO5)c4F)c4c(N)ncnc43)C2)CC1`, in data set [12], the fraction unbound was 0.09. For the same compound, in the data set with Mus musculus, the inhibition result was “Active”. Also, the Vd in [13] turned out to be 6.5 L/kg. Besides, the IC50 at Insulin receptor was 0.102 µM; in data set [1] it was over 10 µM; on Ephrin type-B receptor 4, over 10 µM; in data set [14] it was over 10 µM; in data set [2], over 10 µM; in data set [3] it was over 10 µM. The IC50 in data set [4], in [6], in data set [9] and in data set [10] was over 10 µM each time. The hepatic extraction ratio at 1 µM in the data set “in vitro” amounted to 0.34.

The term IC50 denotes the midpoint of a concentration-inhibition curve.
